The source made the active and inactive calls. The rule behind the calls is not given here.
Assays:
L6 [1] = assay: Uncoupling activity in rat L6 myoblasts assessed as oxygen consumption rate incubated over 90 mins; assay type: functional, cell-based
L6 [2] = assay: Uncoupling activity in rat L6 myoblasts assessed as oxygen consumption rate incubated for 2 mins relative to N5,N6-bis(2-fluorophenyl)-[1,2,5]oxadiazolo[3,4-b]pyrazine-5,6-diamine; assay type: functional
[3] = Half-life in C57BL/6 mouse at 10 mg/kg, po by LC-MS/MS method; assay type: ADME, organism-based; details: in vivo
[4] = Cmax in C57BL/6 mouse at 10 mg/kg, po by LC-MS/MS method; assay type: ADME, organism-based; details: in vivo
L6 [5] = assay: Cytotoxicity against rat L6 cells; assay type: toxicity, cell-based
[6] = Induction of respiration in rat L6 cells assessed as oxygen consumption rate at 3.3 uM pretreated with compound followed by N5,N6-bis(2-fluorophenyl)-[1,2,5]oxadiazolo[3,4-b]pyrazine-5,6-diamine addition; assay type: functional
[7] = Toxicity in C57BL/6 mouse assessed as adverse effect at 30 to 1000 mg/kg, po measured after 24 hrs; assay type: organism-based; details: in vivo, dose 30-1000 mg/kg
[8] = Toxicity in C57BL/6 mouse assessed as change in body weight at 30 to 1000 mg/kg, po measured after 24 hrs; assay type: organism-based; details: in vivo, dose 30-1000 mg/kg
Mus musculus [9] = assay: Anti-MASH activity in GAN-diet induced metabolic dysfunction associated steatohepatitis in C57BL/6 mouse assessed as decrease in liver triglyceride level at 100 to 300 mg/kg, po administered daily measured after 4 weeks; assay type: functional, organism-based; details: dose 100-300 mg/kg
Mus musculus [10] = assay: Anti-MASH activity in GAN-diet induced metabolic dysfunction associated steatohepatitis in C57BL/6 mouse assessed as change in liver size at 100 to 300 mg/kg, po administered daily measured after 4 weeks; assay type: functional, organism-based; details: dose 100-300 mg/kg
[11] = Half-life in C57BL/6 mouse at 30 mg/kg, po by LC-MS/MS method; assay type: ADME, organism-based; details: in vivo
[12] = Induction of respiration in rat L6 cells assessed as oxygen consumption rate at 3.3 uM; assay type: functional
[13] = Toxicity in C57BL/6 mouse assessed as change in appetite at 30 to 1000 mg/kg, po measured after 24 hrs; assay type: organism-based; details: in vivo, dose 30-1000 mg/kg
[14] = Toxicity in C57BL/6 mouse assessed as change in body temperature at 30 to 1000 mg/kg, po measured after 24 hrs; assay type: organism-based; details: in vivo, dose 30-1000 mg/kg
[15] = Toxicity in C57BL/6 mouse assessed as change in body weight at 100 to 300 mg/kg, po administered daily and measured after 31 days; assay type: organism-based; details: in vivo, 744 h, dose 100-300 mg/kg, time 31 day
Mus musculus [16] = assay: Anti-MASH activity in GAN-diet induced metabolic dysfunction associated steatohepatitis in C57BL/6 mouse assessed as change in plasma triglyceride level at 100 to 300 mg/kg, po administered daily measured after 4 weeks; assay type: functional, organism-based; details: dose 100-300 mg/kg
[17] = Cmax in C57BL/6 mouse at 30 mg/kg, po by LC-MS/MS method; assay type: ADME, organism-based; details: in vivo
L6 [18] = assay: Uncoupling activity in rat L6 cells assessed as increase in oxygen consumption rate incubated for 40 mins in presence of rotenone; assay type: functional, cell-based
L6 [19] = assay: Uncoupling activity in rat L6 cells assessed as increase in oxygen consumption rate incubated for 40 mins in presence of antimycin A; assay type: functional, cell-based
Mus musculus [20] = assay: Anti-MASH activity in GAN-diet induced metabolic dysfunction associated steatohepatitis in C57BL/6 mouse assessed as change in plasma cholesterol level at 100 to 300 mg/kg, po administered daily measured after 4 weeks; assay type: functional, organism-based; details: dose 100-300 mg/kg
[21] = Rattus norvegicus, L6, 1.5 h, read-out: EC50

SMILES	EC50 (L6 [1]; [21]) [µM]	Activity (L6 [2]) [%]	also measured
Fc1ccc(-c2ccnc3[nH]c(C(F)(F)F)nc23)cc1	4.4	6	–
Fc1ccc(-c2ccc3nc(C(F)(F)F)[nH]c3n2)cc1	15	42	–
Fc1cc(F)cc(-c2ccc3nc(C(F)(F)F)[nH]c3n2)c1	3.8	32	–
FC(F)(F)c1ccc(-c2ncnc3[nH]c(C(F)(F)F)nc23)cc1	1.2	45	–
Fc1cc(F)cc(Oc2ccnc3[nH]c(C(F)(F)F)nc23)c1	11.9	43	–
Fc1cccc(Oc2ccc3nc(C(F)(F)F)[nH]c3n2)c1F	7.1	39	–
FC(F)(F)c1cccc(-c2ncnc3[nH]c(C(F)(F)F)nc23)c1	1.2	46	–
Fc1ccccc1-c1ccnc2[nH]c(C(F)(F)F)nc12	19.4	18	–
Fc1cc(F)cc(-c2ncnc3[nH]c(C(F)(F)F)nc23)c1	4	54	–
FC(F)(F)c1nc2c(-c3cccc(Cl)c3)ccnc2[nH]1	2	32	half-life [3]: 3 h; Cmax [4]: 18 µM
Fc1ccccc1-c1ccc2nc(C(F)(F)F)[nH]c2n1	16	35	–
Cc1ccc(-c2ccnc3[nH]c(C(F)(F)F)nc23)cc1	–	–	EC50 (L6 [1]; l6): Not_active
FC(F)(F)c1nc2c(-c3ccc(Cl)cc3)ccnc2[nH]1	> 100	22	–
FC(F)(F)c1ccc(-c2ccnc3[nH]c(C(F)(F)C(F)(F)F)nc23)cc1	4.69	31	–
Fc1ccccc1Oc1ccc2nc(C(F)(F)F)[nH]c2n1	30.8	30	–
COc1ccc(-c2ccnc3[nH]c(C(F)(F)F)nc23)cc1	–	–	EC50 (L6 [1]; l6): Not_active
Fc1cccc(-c2ccnc3[nH]c(C(F)(F)F)nc23)c1	8.2	32	–
FC(F)(F)c1nc2c(Cl)ccnc2[nH]1	29.8	14	–
Cc1ccnc2[nH]c(C(F)(F)F)nc12	–	–	EC50 (L6 [1]; l6): Not_active
FC(F)(F)c1cc(-c2ncnc3[nH]c(C(F)(F)F)nc23)cc(C(F)(F)F)c1	–	–	Activity (L6 [5]): Toxic
FC(F)(F)c1cc(-c2ccnc3[nH]c(C(F)(F)F)nc23)cc(C(F)(F)F)c1	> 100	45	–
FC(F)(F)c1ccc(-c2ccc3nc(C(F)(F)F)[nH]c3n2)cn1	11.9	47	–
Fc1ccccc1Oc1ccnc2[nH]c(C(F)(F)F)nc12	58	12	–
Fc1ccc(-c2ccnc3[nH]c(C(F)(F)F)nc23)c(F)c1	11	36	–

SMILES	EC50 (L6 [1]; [21]) [µM]	Activity (L6 [2]) [%]	also measured
CC(=O)c1ccc(-c2ccnc3[nH]c(C(F)(F)F)nc23)cc1	> 100	21	–
FC(F)(F)Oc1ccc(-c2ccc3nc(C(F)(F)F)[nH]c3n2)cc1	1.3	2	–
CC(F)(F)c1nc2c(-c3ccc(C(F)(F)F)cc3)ccnc2[nH]1	–	–	EC50 (L6 [1]; l6): Not_active
Fc1cc(F)cc(Oc2ccc3nc(C(F)(F)F)[nH]c3n2)c1	3.9	45	–
FC(F)(F)c1ccc(-c2ccnc3[nH]c(C(F)(F)F)nc23)cc1	1.3	46	half-life [3]: 3.4 h; Cmax [4]: 8 µM
FC(F)(F)Oc1cccc(-c2ccnc3[nH]c(C(F)(F)F)nc23)c1	0.83	41	Activity [6]: 300%; half-life [3]: 1.3 h; Activity [7]: Non-toxic; Activity [8]: Non-toxic; Activity (Mus musculus [9]): Active; Activity (Mus musculus [10]): inactive; half-life [11]: 3.7 h; Activity [12]: 200%; Activity [13]: Non-toxic; Activity [14]: Non-toxic; Activity [15]: Non-toxic; Activity (Mus musculus [16]): inactive; Cmax [17]: 34.7 µM; Activity (L6 [18]): inactive; Activity (L6 [19]): inactive; Activity (Mus musculus [20]): inactive; Cmax [4]: 22 µM
FC(F)(F)c1cccc(-c2ccc3nc(C(F)(F)F)[nH]c3n2)c1	3	36	–
Oc1ccc(-c2ccnc3[nH]c(C(F)(F)F)nc23)cc1	–	–	EC50 (L6 [1]; l6): Not_active
FC(F)(F)c1nc2c(-c3cc(Cl)cc(Cl)c3)ccnc2[nH]1	1.1	76	half-life [3]: 25.3 h; Cmax [4]: 13 µM
FC(F)(F)c1cccc(-c2ccnc3[nH]c(C(F)(F)F)nc23)c1	0.85	42	half-life [3]: 5.5 h; Cmax [4]: 28 µM
FC(F)(F)c1ccc(-c2ccnc3[nH]c(C(F)(F)F)nc23)cn1	2.6	25	–
FC(F)(F)c1cccc(Oc2ccc3nc(C(F)(F)F)[nH]c3n2)c1	1.8	19	–
FC(F)(F)c1ccc(-c2ccc3nc(C(F)(F)F)[nH]c3n2)cc1	1	11	–
FC(F)(F)Oc1ccc(-c2ccnc3[nH]c(C(F)(F)F)nc23)cc1	0.48	19	–
FC(F)(F)c1cccc(Oc2ccnc3[nH]c(C(F)(F)F)nc23)c1	3.7	20	–
FC(F)(F)c1nc2c(-c3ccccc3)ccnc2[nH]1	–	–	EC50 (L6 [1]; l6): Not_active
Fc1ccc(F)c(-c2ccnc3[nH]c(C(F)(F)F)nc23)c1	15	54	–
FC(F)(F)Oc1cccc(-c2ccc3nc(C(F)(F)F)[nH]c3n2)c1	1.4	8	–
Fc1ccc(Oc2ccc3nc(C(F)(F)F)[nH]c3n2)c(F)c1	12.6	43	–
FC(F)c1nc2c(-c3ccc(C(F)(F)F)cc3)ccnc2[nH]1	–	–	EC50 (L6 [1]; l6): Not_active
Fc1cc(F)cc(-c2ccnc3[nH]c(C(F)(F)F)nc23)c1	1.5	42	half-life [3]: 2.8 h; Cmax [4]: 37 µM
Fc1ccc(-c2ccnc3[nH]c(C(F)(F)F)nc23)cc1F	4.4	34	–
Fc1cccc(Oc2ccc3nc(C(F)(F)F)[nH]c3n2)c1	10.3	47	–

Reference: ChEMBL document CHEMBL6092181, “Design, synthesis, and biological evaluation of imidazo[4,5-b]pyridine mitochondrial uncouplers for the treatment of metabolic dysfunction-associated steatohepatitis (MASH)” (Eur J Med Chem, 2024)
